Assay results: article PMC7072979, “Doxorubicin Inhibits Phosphatidylserine Decarboxylase and Modifies Mitochondrial Membrane Composition in HeLa Cells” (International Journal of Molecular Sciences, 2020)

Target: T1, phosphatidylserine decarboxylase (PSD) (Homo sapiens, UniProt Q9UG56)
T1 construct: gene PISD; native endogenous enzyme in mitochondria isolated from HeLa cells (not purified); proenzyme self-cleaved into alpha and beta subunits
T1 sequence (Q9UG56 53-377): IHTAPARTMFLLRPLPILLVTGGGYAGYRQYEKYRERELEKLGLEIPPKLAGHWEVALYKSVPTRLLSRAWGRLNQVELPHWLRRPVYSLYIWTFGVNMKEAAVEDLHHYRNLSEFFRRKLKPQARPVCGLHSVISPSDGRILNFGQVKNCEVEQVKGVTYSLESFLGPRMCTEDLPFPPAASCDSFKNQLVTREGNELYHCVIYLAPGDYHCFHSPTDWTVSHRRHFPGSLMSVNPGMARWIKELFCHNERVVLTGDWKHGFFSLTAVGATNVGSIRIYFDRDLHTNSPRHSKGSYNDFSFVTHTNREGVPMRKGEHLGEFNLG
T1 sequence (Q9UG56 378-409): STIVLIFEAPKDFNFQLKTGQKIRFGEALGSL
Assay: PE-NBD formation from PS-NBD, HPTLC fluorescence scan, isolated mitochondria
Format: biochemical

inhibition at 5 µM: 48%
Compound: COc1cccc2c1C(=O)c1c(O)c3c(c(O)c1C2=O)C[C@@](O)(C(=O)CO)C[C@@H]3O[C@H]1C[C@H](N)[C@H](O)[C@H](C)O1 [Doxorubicin]
